What was measured:
Format in all cases: in vivo
Kunming mice [1] = test: Detection of fasting blood glucose level in high-fat diet / streptozotocin diabetic mice; settings: FIG. 11; gavage 28 days; pea peptides 1,600 mg/kg BW, metformin 185 mg/kg BW; AUC of days 1, 7, 14, 21, 28; versus model group
Experimental: (§1) Hypoglycemic functions of the pea peptide samples were evaluated by using the following method.
(§2) 110 Kunming mice were weighed and randomly divided into 11 groups in total: a blank group, a model group, a positive group (metformin 185 mg/kg BW), Example 1-low dose (800 mg/kg BW), Example 1-medium dose (1600 mg/kg BW), Example 1-high dose (3,200 mg/kg BW), Example 2 (1,600 mg/kg BW), Example 3 (1,600 mg/kg BW), Comparative Example 1 (,1600 mg/kg BW), Comparative Example 2 (1,600 mg/kg BW), and Comparative Example 3 (1,600 mg/kg BW), with 10 mice for each group. No any treatment was performed on the blank group; the remaining 10 groups were fed with high-fat diet for 30 days, and then intraperitoneally injected with streptozotocin to induce diabetes, for modeling; except for the blank group and the model group, the positive group was gavaged with metformin, and the experimental group was gavaged with corresponding pea peptide, the gavage was successively performed for 28 days, and the following indicators were detected:
a. Detection of Fasting Blood Glucose Level
After modeling, blood samples were collected from tail tips of 11 groups of mice on days 1, 7, 14, 21 and 28, respectively, to determine concentration of fasting blood glucose, and an area under curve, AUC, was calculated for each group based on the average value of 10 data.

Kunming mice [2] = test: Detection of glucose tolerance level (oral glucose 2 g/kg) in high-fat diet / streptozotocin diabetic mice; settings: FIG. 13; last day, glucose 2 g/kg by gavage 60 min after treatment; AUC 0-120 min; pea peptides 1,600 mg/kg BW, metformin 185 mg/kg BW; versus model group
Experimental: as §1, §2
b. Detection of Glucose Tolerance Level […]

Kunming mice [3] = test: Detection of serum insulin level in high-fat diet / streptozotocin diabetic mice; settings: FIG. 15, last day after 28 days gavage, pea peptides 1,600 mg/kg BW, metformin 185 mg/kg BW, versus model group
Experimental: as §1, §2
c. Detection of Insulin Level
On the last day of the experiment, all mice were killed, blood samples were collected and centrifuged to obtain serum, serum insulin concentrations (μg/L) were detected, and serum insulin concentration was calculated for each group based on the average value of 10 data.

CN(C)C(=N)N=C(N)N [positive group, metformin]
fasting blood glucose level (Kunming mice [1]): significantly reduced fasting blood glucose level
blood glucose concentration (glucose tolerance capability) (Kunming mice [2]): significantly reduce the blood glucose concentration
insulin concentration (Kunming mice [3]): significantly improve the insulin concentrations
